# According to patent publication US20240308994A1, “ISOXAZOLE DERIVATIVE OR PHARMACEUTICALLY ACCEPTABLE SALT THEREOF AND USE THEREOF” (INDUSTRY-UNIVERSITY COOPERATION FOUNDATION HANYANG …, priority 2021, published 2024):
# Like-named read-outs stand apart in the source and are kept apart here.
# Molecular target: T1, FMS (h) (Homo sapiens, UniProt P07333)
# T1 construct: purchased Reaction Biology Corp. (Kinase HotSpot service)
# Assay: Kinase HotSpot radiometric assay, activity on CSF-1R (FMS)
# Format: biochemical
# [1] = Table 3, read-out: IC50 (M) on FMS
# T1 sequence (P07333 20-972): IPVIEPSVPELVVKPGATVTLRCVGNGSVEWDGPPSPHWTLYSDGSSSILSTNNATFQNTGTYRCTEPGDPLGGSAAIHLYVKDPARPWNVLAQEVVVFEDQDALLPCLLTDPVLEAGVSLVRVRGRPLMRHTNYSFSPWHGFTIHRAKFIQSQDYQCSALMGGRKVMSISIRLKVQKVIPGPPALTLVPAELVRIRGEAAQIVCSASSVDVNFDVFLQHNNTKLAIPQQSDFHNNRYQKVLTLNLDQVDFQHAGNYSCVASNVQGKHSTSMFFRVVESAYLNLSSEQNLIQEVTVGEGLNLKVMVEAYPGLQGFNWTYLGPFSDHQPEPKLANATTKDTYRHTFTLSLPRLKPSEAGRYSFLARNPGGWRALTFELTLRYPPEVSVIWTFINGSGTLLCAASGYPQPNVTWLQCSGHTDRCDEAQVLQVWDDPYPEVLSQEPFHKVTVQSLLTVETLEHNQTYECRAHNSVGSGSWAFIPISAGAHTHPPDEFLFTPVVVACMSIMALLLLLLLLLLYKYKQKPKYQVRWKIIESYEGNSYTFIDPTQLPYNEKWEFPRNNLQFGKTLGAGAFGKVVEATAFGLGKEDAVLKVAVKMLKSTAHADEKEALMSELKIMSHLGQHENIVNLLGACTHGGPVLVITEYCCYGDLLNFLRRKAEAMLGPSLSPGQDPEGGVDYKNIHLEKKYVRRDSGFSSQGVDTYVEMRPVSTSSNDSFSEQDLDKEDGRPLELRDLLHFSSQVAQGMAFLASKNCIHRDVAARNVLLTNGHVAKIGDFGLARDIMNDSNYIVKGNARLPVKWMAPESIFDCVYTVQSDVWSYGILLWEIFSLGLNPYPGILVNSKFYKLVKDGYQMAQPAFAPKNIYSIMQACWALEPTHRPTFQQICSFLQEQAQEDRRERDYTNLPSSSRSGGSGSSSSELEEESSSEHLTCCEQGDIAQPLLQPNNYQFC
IC50 [1] [M],"IC50 (Table 1, read-out: IC50) [M]","IC50 (Table 2, read-out: IC50 (μm)) [M]",SMILES
1e-07 to 1e-06,,,"CC(=O)N1CCC(c2ccc(NC(=O)c3cc(C)on3)c(C3=CCCCC3)c2)CC1 [Compound 83b, N-(5-(1-acetylpiperidin-4-yl)-2′,3′,4′,5′-tetrahydro-[1,1′-biphenyl]-2-yl)-5-methylisoxazole-3-carboxamide]"
< 1e-07,,< 1e-07,"Cc1cc(C(=O)Nc2ccc(C3CC(C)(C)NC(C)(C)C3)cc2C2=CCC(C)(C)CC2)no1 [Compound 92c, N-(4′,4′-dimethyl-5-(2,2,6,6-tetramethylpiperidin-4-yl)-2,3′,4′,5′-tetrahydro-[1,1′-biphenyl]-2-yl)-5-methylisoxazole-3-carboxamide]"
> 1e-06,> 1e-06,,"CCN1CCC(c2ccc(NC(=O)c3cc(C)on3)c(C3=CCCC3)c2)CC1 [Compound 71b, N-(2-(Cyclopent-1-en-1-yl)-4-(1-ethylpiperidin-4-yl)phenyl)-5-methylisoxazole-3-carboxamide]"
< 1e-07,< 1e-07,,Cc1cc(C(=O)Nc2ccc(C3CCCN(C)CC3)cc2C2=CCC(C)(C)CC2)no1 (centres unmarked) [Compound 68c]
< 1e-07,1e-07 to 1e-06,,"CC(C)=CCN1CCC(c2ccc(NC(=O)c3cc(C)on3)c(C3=CCCCC3)c2)CC1 [Compound 76b, 5-methyl-N-(5-(1-(3-methylbut-2-en-1-yl)piperidin-4-yl)-2′,3′,4′,5′-tetrahydro-[1,1′-biphenyl]-2-yl)isoxazole-3-carboxamide]"
> 1e-06,> 1e-06,,"Cc1cc(C(=O)Nc2ccc(C3CCN(C)CC3)cc2C2CCCCC2)no1 [Compound 69b, N-(2-cyclohexyl-4-(1-methylpiperidin-4-yl)phenyl)-5-methylisoxazole-3-carboxamide]"
1e-07 to 1e-06,1e-07 to 1e-06,,"Cc1cc(C(=O)Nc2ccc(C3CCCN(C)CC3)cc2C2=CCCCC2)no1 (centres unmarked) [Compound 67c, 5-methyl-N-(5-(1-methylazepan-4-yl)-2′,3′,4′,5′-tetrahydro-[1,1′-biphenyl]-2-yl)isoxazole-3-carboxamide]"
> 1e-06,> 1e-06,,"CCN1CCC(c2ccc(NC(=O)c3cc(C)on3)c(C3CCCC3)c2)CC1 [Compound 75b, N-(2-Cyclopentyl-4-(1-ethylpiperidin-4-yl)phenyl)-5-methylisoxazole-3-carboxamide]"
1e-07 to 1e-06,,,"Cc1cc(C(=O)Nc2ccc(C3CCN(C(=O)CN(C)C)CC3)cc2C2=CCCCC2)no1 [Compound 84b, N-(5-(1-(dimethylglycyl)piperidin-4-yl)-2′,3′,4′,5′-tetrahydro-[1,1′-biphenyl]-2-yl)-5-methylisoxazole-3-carboxamide]"
< 1e-07,,,"CCN1CCC(c2ccc(NC(=O)c3cc(C)on3)c(C3=CCCCC3)c2)CC1 [Compound 70b, N-(5-(1-ethylpiperidin-4-yl)-2′,3′,4′,5′-tetrahydro-[1,1′-biphenyl]-2-yl)-5-methylisoxazole-3-carboxamide]"
1e-07 to 1e-06,,1e-07 to 1e-06,"Cc1cc(C(=O)Nc2ccc(C3CC(C)(C)NC(C)(C)C3)cc2C2=CCCCCC2)no1 [Compound 92d, N-(2-(cyclohept-1-en-1-yl)-4-(2,2,6,6-tetramethylpiperidin-4-yl)phenyl)-5-methylisoxazole-3-carboxamide]"
< 1e-07,,,"CC[N+]1(CC)CCC(c2ccc(NC(=O)c3cc(C)on3)c(C3=CCCCC3)c2)CC1 [Compound 82b, 1,1-diethyl-4-(6-(5-methylisoxazole-3-carboxamido)-2′,3′,4′,5′-tetrahydro-[1,1′-biphenyl]-3-yl)piperidin-1-ium]"
< 1e-07,,1e-07 to 1e-06,"Cc1cc(C(=O)Nc2ccc(C3CC(C)(C)NC(C)(C)C3)cc2C2=CCCCC2)no1 [Compound 92a, 5-methyl-N-(5-(2,2,6,6-tetramethylpiperidin-4-yl)-2′,3′,4′,5′-tetrahydro-[1,1′-biphenyl]-2-yl)isoxazole-3-carboxamide]"
> 1e-06,> 1e-06,,"CCN1CCC(c2ccc(NC(=O)c3cc(C)on3)c(C3CCCCC3)c2)CC1 [Compound 74b, N-(2-cyclohexyl-4-(1-ethylpiperidin-4-yl)phenyl)-5-methylisoxazole-3-carboxamide]"
< 1e-07,,,"Cc1cc(C(=O)Nc2ccc(C3CCC[N+](C)(C)CC3)cc2C2=CCC(C)(C)CC2)no1 (centres unmarked) [Compound 80c, 4-(4′,4′-dimethyl-6-(5-methylisoxazole-3-carboxamido)-2′,3′,4′,5′-tetrahydro-[1,1′-biphenyl]-3-yl)-1,1-dimethylazepan-1-ium]"
< 1e-07,< 1e-07,,"Cc1cc(C(=O)Nc2ccc(C3CCN(CC4CC4)CC3)cc2C2=CCC(C)CC2)no1 (centres unmarked) [Compound 77b, N-(5-(1-(cyclopropylmethyl)piperidin-4-yl)-4′-methyl-2,3,4,5′-tetrahydro-[1,1′-biphenyl]-2-yl)-5-methylisoxazole-3-carboxamide]"
< 1e-07,,,"Cc1cc(C(=O)Nc2ccc(C3CC[N+](C)(C)CC3)cc2C2=CCCCC2)no1 [Compound 79b, 1,1-dimethyl-4-(6-(5-methylisoxazole-3-carboxamido)-2′,3′,4′,5′-tetrahydro-[1,1′-biphenyl]-3-yl)piperidin-1-ium]"

# The remaining lines, values behind:
SMILES,IC50 [1] [M],"IC50 (Table 1, read-out: IC50) [M]","IC50 (Table 2, read-out: IC50 (μm)) [M]"
"Cc1cc(C(=O)Nc2ccc(C3CCNC3)cc2C2=CCCCC2)no1 (centres unmarked) [Compound 60a, 5-methyl-N-(5-(pyrrolidin-3-yl)-2′,3′,4′,5′-tetrahydro-[1,1′-biphenyl]-2-yl)isoxazole-3-carboxamide]",1e-07 to 1e-06,1e-07 to 1e-06,
"Cc1cc(C(=O)Nc2cc(NC(=O)c3ccc(-c4ccccc4)cc3)ccc2C)no1 [Compound 5f, N-(5-([1,1′-biphenyl]-4-carboxamido)-2-methylphenyl)-5-methylisoxazole-3-carboxamide]",> 1e-06,,
"Cc1cc(C(=O)Nc2cc(NC(=O)c3cnn(-c4ccccc4)c3C(F)(F)F)ccc2C)no1 [Compound 5s, 5-methyl-N-(2-methyl-5-(1-phenyl-5-(trifluoromethyl)-1H-pyrazole-4-carboxamido)phenyl)isoxazole-3-carboxamide]",> 1e-06,,
"Cc1cc(C(=O)Nc2ccc(C3CCNCC3)cc2C2=CCCC2)no1 [Compound 61b, N-(2-(Cyclopent-1-en-1-yl)-4-(piperidin-4-yl)phenyl)-5-methylisoxazole-3-carboxamide]",> 1e-06,> 1e-06,
"Cc1cc(C(=O)Nc2ccc(C3CCNCC3)cc2C2=CCC(C)(C)CC2)no1 [Compound 64b, N-(4′,4′-dimethyl-5-(piperidin-4-yl)-2′,3′,4′,5′-tetrahydro-[1,1′-biphenyl]-2-yl)-5-methylisoxazole-3-carboxamide]",< 1e-07,< 1e-07,
"Cc1cc(C(=O)Nc2ccc(C3CCN(C)CC3)cc2C2=CCCCC2)no1 [Compound 67b, 5-methyl-N-(5-(1-methylpiperidin-4-yl)-2′,3′,4′,5′-tetrahydro-[1,1′-biphenyl]-2-yl)isoxazole-3-carboxamide]",< 1e-07,< 1e-07,
"Cc1cc(C(=O)Nc2cc(NC(=O)c3ccc4ccccc4n3)ccc2C)no1 [Compound 5q, 5-methyl-N-(2-methyl-5-(quinoline-2-carboxamido)phenyl)isoxazole-3-carboxamide]",> 1e-06,,
"Cc1cc(C(=O)Nc2cc(NC(=O)c3ccc4nn[nH]c4c3)ccc2C)no1 [Compound 5r, N-(5-(1H-benzo[d][1,2,3]triazole-6-carboxamido)-2-methylphenyl)-5-methylisoxazole-3-carboxamide]",> 1e-06,,
"Cc1cc(C(=O)Nc2cc(NC(=O)c3cc(N4CCN(C)CC4)cc(-n4ccnc4C)c3)ccc2C)no1 [Compound 5g, 5-methyl-N-(2-methyl-5-(3-(2-methyl-1H-imidazol-1-yl)-5-(4-methylpiperazin-1-yl)benzamido)phenyl)isoxazole-3-carboxamide]",> 1e-06,,
"Cc1cc(C(=O)Nc2ccc(C3CCCNCC3)cc2C2=CCCCC2)no1 (centres unmarked) [Compound 60c, N-(5-(azepan-4-yl)-2′,3′,4′,5′-tetrahydro-[1,1′-biphenyl]-2-yl)-5-methylisoxazole-3-carboxamide]",< 1e-07,< 1e-07,
"Cc1cc(C(=O)Nc2cc(NC(=O)c3cc(NC4CCN(C)CC4)cc(-n4ccnc4C)c3)ccc2C)no1 [Compound 5h, 5-methyl-N-(2-methyl-5-(3-(2-methyl-1H-imidazol-1-yl)-5-((1-methylpiperidin-4-yl)amino)benzamido)phenyl)isoxazole-3-carboxamide]",> 1e-06,,
"Cc1cc(C(=O)Nc2cc(NC(=O)c3cc(N4CCC([N+](C)(C)C)C4)cc(C(F)(F)F)c3)ccc2C)no1 (centres unmarked) [Compound 5m, N,N,N-trimethyl-1-(3-((4-methyl-3-(5-methylisoxazole-3-carboxamido)phenyl)carbamoyl)-5-(trifluoromethyl)phenyl)pyrrolidin-3-aminium]",> 1e-06,,
"Cc1cc(C(=O)Nc2ccc(C3CCNCC3)cc2C2CCCC2)no1 [Compound 66b, N-(2-Cyclopentyl-4-(piperidin-4-yl)phenyl)-5-methylisoxazole-3-carboxamide]",> 1e-06,> 1e-06,
"Cc1cc(C(=O)Nc2ccc(C3CCCNCC3)cc2C2=CCC(C)(C)CC2)no1 (centres unmarked) [Compound 64c, N-(5-(azepan-4-yl)-4′,4′-dimethyl-2′,3′,4′,5′-tetrahydro-[1,1′-biphenyl]-2-yl)-5-methylisoxazole-3-carboxamide]",< 1e-07,< 1e-07,
"Cc1cc(C(=O)Nc2cc(NC(=O)c3cc(N[C@@H]4CCCN(C)C4)cc(C(F)(F)F)c3)ccc2C)no1 [Compound 5l, (R)-5-Methyl-N-(2-methyl-5-(3-((1-methylpiperidin-3-yl)amino)-5-(trifluoromethyl)benzamido)phenyl)isoxazole-3-carboxamide]",> 1e-06,,
"Cc1cc(C(=O)Nc2ccc(C3CCNCC3)cc2C2=CCC(C)CC2)no1 (centres unmarked) [Compound 63b, 5-Methyl-N-(4′-methyl-5-(piperidin-4-yl)-2′,3′,4′,5′-tetrahydro-[1,1′-biphenyl]-2-yl)isoxazole-3-carboxamide]",< 1e-07,< 1e-07,
"Cc1cc(C(=O)Nc2ccc(NC3CCOCC3)nc2C)no1 [Compound 17b, 5-methyl-N-(2-methyl-6-((tetrahydro-2H-pyran-4-yl)amino)pyridin-3-yl)isoxazole-3-carboxamide]",< 1e-07,,
